This note sets out measurements from article PMC5691139, “Structural and functional studies of SAV0551 from Staphylococcus aureus as a chaperone and glyoxalase III” (Bioscience Reports, 2017).

The target in series [1] is T1, SAV0551 (Staphylococcus aureus, UniProt P64312).
T1 construct: gene hchA; monomer ~32 kDa, dimer ~64 kDa
T1 sequence (P64312 1-292): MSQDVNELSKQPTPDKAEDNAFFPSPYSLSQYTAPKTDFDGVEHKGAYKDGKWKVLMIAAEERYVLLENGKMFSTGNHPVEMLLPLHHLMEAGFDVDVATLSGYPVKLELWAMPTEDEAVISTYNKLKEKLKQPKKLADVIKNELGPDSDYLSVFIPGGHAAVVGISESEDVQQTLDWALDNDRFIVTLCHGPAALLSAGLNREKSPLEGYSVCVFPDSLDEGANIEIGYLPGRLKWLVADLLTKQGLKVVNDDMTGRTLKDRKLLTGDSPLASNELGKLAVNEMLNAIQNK
Description: 1D 1H NMR. Type of series: biochemical. The settings on record: 60 mM methylglyoxal, 50 µM enzyme, 20 mM HEPES pH 7.5, 50 mM KCl, 2 mM DTT, 37°C.

Series [2] addresses T1, SAV0551. Description: X-ray crystal structure of the complex, […] Å. Type of series: binding. The settings on record: co-crystal with 50 mM glyoxylate, 30% PEG3350, 100 mM BisTris pH 6.5, 293 K; active site at Cys190; additional glyoxylate in aspartate-rich cleft between non-dimer chains.
Series [3] deals with T1, SAV0551. Description: 1D 1H NMR and DNPH absorbance ([…] nm) of remaining methylglyoxal. The settings on record: no cofactor; 20 mM HEPES pH 7.5, 50 mM KCl, 2 mM DTT, 37°C; 60 mM (NMR) or 6 mM substrate; 50 or 10 µM enzyme. Type of series: biochemical.
Series [4] deals with the molecule itself. Description: SEC; size-exclusion chromatography in solution; conditions not told for this result (the purification used Superdex 75 10/300 GL in 50 mM Tris pH 7.5, 0.15 M NaCl). In general terms: Size exclusion chromatography separates by hydrodynamic size, large species first.

On to `C[C@@H](O)C(=O)O` [D-lactate], for which, in series [1], the “1D 1H NMR” value is listed as “new peaks that correspond to the D-lactate produced by SAV0551”.

With `O=CC(=O)O` [glyoxylate], in series [2], the “X-ray crystal structure of the complex, 3.01 Å” value was 5XR3 for SAV0551 with glyoxylate.

`CC(=O)C=O` [methylglyoxal]: in series [3], the “1D 1H NMR and DNPH absorbance (550 nm) of remaining methylglyoxal” value was “methylglyoxal can be used as a substrate for SAV0551 to produce D-lactate”.

B1: SAV0551 from Staphylococcus aureus Mu50 (natural protein, UniProt P64312 1-292, looked up)
chain: T1 sequence (P64312 1-292)
notes: SAV0551, Hsp-type DJ-1/ThiJ/PfpI superfamily protein (Hsp31 homologue, glyoxalase III) of Staphylococcus aureus Mu50 (ATCC 700699); predicted ORF amplified from genomic DNA into pET-21a(+) NdeI/XhoI; monomer ~32 kDa; also called wild-type SAV0551; native SAV0551; source: E. coli BL21(DE3), purified (Ni-NTA, Superdex 75)
Turning to B1, in series [4], the “stoichiometry N” value worked out at 2.

As a reminder, the stoichiometry N is the number of molecules, sites or subunits per partner or assembly.
